Test results from the CombiSolv-Exp solvation set (Vermeire and Green 2021).

Test: solvent given as SMILES
[1] = in CCCCCCCC(=O)OCC(COC(=O)CCCCCCC)OC(=O)CCCCCCC

CCC=C(C)C
solvation free energy, 298 K (in C=CCCCCCCCCCCCCCC): -3.42 kcal/mol
solvation free energy, 298 K (in CN1CCCC1=O): -3.06 kcal/mol
solvation free energy, 298 K (in CN(C)C=O): -3.12 kcal/mol
solvation free energy, 298 K (in O): 1.47 kcal/mol

CC(C)CO[N+](=O)[O-]
solvation free energy, 298 K (in O): -1.88 kcal/mol

CC(F)(F)Cl
solvation free energy, 298 K [1]: -1.84 kcal/mol
solvation free energy, 298 K (in CCCCCCCCC): -1.74 kcal/mol
solvation free energy, 298 K (in CCCCCCCCO): -1.62 kcal/mol
solvation free energy, 298 K (in CN1CCCC1=O): -2.13 kcal/mol
solvation free energy, 298 K (in CN(C)C=O): -2.09 kcal/mol
solvation free energy, 298 K (in O): 0.61 kcal/mol

CCOc1ccc(NC(C)=O)cc1
solvation free energy, 298 K (in C1CCOC1): -13.7 kcal/mol
solvation free energy, 298 K (in CCCCCCCCO): -13.1 kcal/mol
solvation free energy, 298 K (in CCCCCO): -13 kcal/mol
solvation free energy, 298 K (in CCCCO): -13.2 kcal/mol
solvation free energy, 298 K (in CCCO): -13.2 kcal/mol
solvation free energy, 298 K (in CCO): -13.3 kcal/mol
solvation free energy, 298 K (in CCOC(C)=O): -12.8 kcal/mol
solvation free energy, 298 K (in CO): -13.6 kcal/mol
solvation free energy, 298 K (in O): -10.9 kcal/mol

CCCCCOC(=O)CCC
solvation free energy, 298 K (in O): -2.55 kcal/mol

CC(=O)C1CCCCC1
solvation free energy, 298 K (in O): -3.9 kcal/mol

Cc1cccc(C)c1N
solvation free energy, 298 K (in O): -5.21 kcal/mol

CCCCCN(CCCCC)N=O
solvation free energy, 298 K (in CC(C)CC(C)(C)C): -9.29 kcal/mol

COP(=S)(OC)SCn1nnc2ccccc2c1=O
solvation free energy, 298 K (in O): -10 kcal/mol

CF
solvation free energy, 298 K (in CCCO): 0.03 kcal/mol
solvation free energy, 298 K (in O): -0.22 kcal/mol

CCS
solvation free energy, 298 K (in CC(C)CC(C)(C)C): -3.13 kcal/mol
solvation free energy, 298 K (in CO): -3 kcal/mol
solvation free energy, 298 K (in O): -1.07 kcal/mol
solvation free energy, 298 K (in OCCOCCOCCOCCO): -2.7 kcal/mol

CCCCC(CC)CO (stereo not given)
solvation free energy, 298 K (in O): -3.96 kcal/mol

O=C1c2ccccc2-c2ccccc21
solvation free energy, 298 K (in CC(C)(C)O): -10.4 kcal/mol
solvation free energy, 298 K (in CC(C)CC(C)(C)C): -9.57 kcal/mol
solvation free energy, 298 K (in CC(C)CCO): -10.5 kcal/mol
solvation free energy, 298 K (in CC(C)CO): -10.3 kcal/mol
solvation free energy, 298 K (in CC(C)O): -10.4 kcal/mol
solvation free energy, 298 K (in CC(C)OC(C)C): -10.5 kcal/mol
solvation free energy, 298 K (in CCC(C)O): -10.5 kcal/mol
solvation free energy, 298 K (in CCCCC(CC)CO): -10.5 kcal/mol
solvation free energy, 298 K (in CCCCCC): -9.78 kcal/mol
solvation free energy, 298 K (in CCCCCCC): -9.83 kcal/mol
solvation free energy, 298 K (in CCCCCCCC): -9.86 kcal/mol
solvation free energy, 298 K (in CCCCCCCCC=CCCCCCCCC(=O)OCC(COC(=O)CCCCCCCC=CCCCCCCCC)OC(=O)CCCCCCCC=CCCCCCCCC): -10.5 kcal/mol
solvation free energy, 298 K (in CCCCCCCCCC): -9.9 kcal/mol
solvation free energy, 298 K (in CCCCCCCCCCO): -10.6 kcal/mol
solvation free energy, 298 K (in CCCCCCCCO): -10.7 kcal/mol
solvation free energy, 298 K (in CCCCCCCO): -10.7 kcal/mol
solvation free energy, 298 K (in CCCCCCO): -10.6 kcal/mol
solvation free energy, 298 K (in CCCCCO): -10.6 kcal/mol
solvation free energy, 298 K (in CCCCO): -10.6 kcal/mol
solvation free energy, 298 K (in CCCO): -10.6 kcal/mol
solvation free energy, 298 K (in CCO): -10.6 kcal/mol
solvation free energy, 298 K (in CO): -10.6 kcal/mol
solvation free energy, 298 K (in COC(C)(C)C): -11 kcal/mol
solvation free energy, 298 K (in ClC(Cl)(Cl)Cl): -11.5 kcal/mol
solvation free energy, 298 K (in ClCCl): -12 kcal/mol
solvation free energy, 298 K (in Fc1ccccc1): -11.7 kcal/mol
solvation free energy, 298 K (in O): -5.78 kcal/mol

O=[N+]([O-])c1cccc(Cl)c1
solvation free energy, 298 K (in O): -4.45 kcal/mol

CCC(C)(C)CC
solvation free energy, 298 K (in C=CCCCCCCCCCCCCCC): -3.89 kcal/mol

CC(C)C(=O)C(C)C
solvation free energy, 298 K (in O): -2.56 kcal/mol

CCNc1nc(Cl)nc(NC(C)(C)C#N)n1
solvation free energy, 298 K (in O): -13.2 kcal/mol

CCCN(CCC)N=O
solvation free energy, 298 K (in CC(C)CC(C)(C)C): -6.56 kcal/mol

FC(F)(F)c1ccccc1C(F)(F)F
solvation free energy, 298 K (in O): 1.07 kcal/mol

CCOC(C)(C)CC
solvation free energy, 298 K (in O): -1.5 kcal/mol

[H][H]
solvation free energy, 298 K (in CCCCCCCCO): 1.76 kcal/mol
solvation free energy, 298 K (in O): 2.35 kcal/mol

Nc1ccc(Cl)cc1
solvation free energy, 298 K (in O): -5.91 kcal/mol

O=[N+]([O-])c1ccccc1O
solvation free energy, 298 K (in CC(C)CC(C)(C)C): -6.5 kcal/mol
solvation free energy, 298 K (in CCCCCC): -6.48 kcal/mol
solvation free energy, 298 K (in CCCCCCC): -6.49 kcal/mol
solvation free energy, 298 K (in CCCCCCCC): -6.49 kcal/mol
solvation free energy, 298 K (in CCCCCCCCCC): -6.47 kcal/mol
solvation free energy, 298 K (in Cc1cccc(C)c1): -7.73 kcal/mol
solvation free energy, 298 K (in O): -4.58 kcal/mol

O=C(O)c1ccc(CO)cc1
solvation free energy, 298 K (in C=CCCCCCCCCCCCCCC): -8.43 kcal/mol
solvation free energy, 298 K (in O): -13.3 kcal/mol

CCC(C)CCC(C)C (stereo not given)
solvation free energy, 298 K (in CCCO): -4.64 kcal/mol

CCc1ccc(C)cc1
solvation free energy, 298 K (in O): -0.95 kcal/mol

O=C(O)C=CC(=O)O
solvation free energy, 298 K (in CC(C)=O): -10.2 kcal/mol
solvation free energy, 298 K (in CC(C)O): -10.8 kcal/mol
solvation free energy, 298 K (in CCCO): -10.6 kcal/mol
solvation free energy, 298 K (in CCO): -10.8 kcal/mol
solvation free energy, 298 K (in O): -9.96 kcal/mol
solvation free energy, 298 K (in O=C1CCCCC1): -9.9 kcal/mol

CC1=C2CC3CCC(C)C2(CC1)C3(C)C (stereo not given)
solvation free energy, 298 K (in O): 0.78 kcal/mol

FC(F)Cl
solvation free energy, 298 K [1]: -1.69 kcal/mol
solvation free energy, 298 K (in CCCCCCCCC): -1.16 kcal/mol

O=C(O)c1ccccc1
solvation free energy, 298 K (in C1CCOC1): -9.93 kcal/mol
solvation free energy, 298 K (in C1COCCO1): -9.81 kcal/mol
solvation free energy, 298 K (in C=CCCCCCCC=C): -6.26 kcal/mol
solvation free energy, 298 K (in C=CCCCCCCCCCCCCCC): -5.84 kcal/mol
solvation free energy, 298 K (in CC(=O)N(C)C): -10.1 kcal/mol
solvation free energy, 298 K (in CC(C)=O): -9.63 kcal/mol
solvation free energy, 298 K (in CC(C)CCO): -9.41 kcal/mol
solvation free energy, 298 K (in CC(C)CO): -9.4 kcal/mol
solvation free energy, 298 K (in CC(C)O): -9.63 kcal/mol
solvation free energy, 298 K (in CCC(C)O): -9.41 kcal/mol
solvation free energy, 298 K (in CCCC(C)O): -9.52 kcal/mol
solvation free energy, 298 K (in CCCCCCCCCCO): -9.21 kcal/mol
solvation free energy, 298 K (in CCCCCCCO): -9.27 kcal/mol
solvation free energy, 298 K (in CCCCCCO): -9.39 kcal/mol
solvation free energy, 298 K (in CCCCCO): -9.44 kcal/mol
solvation free energy, 298 K (in CCCCO): -9.58 kcal/mol
solvation free energy, 298 K (in CCCCOC(C)=O): -9.29 kcal/mol
solvation free energy, 298 K (in CCCCOCCCC): -8.8 kcal/mol
solvation free energy, 298 K (in CCCO): -9.6 kcal/mol
solvation free energy, 298 K (in CCO): -9.71 kcal/mol
solvation free energy, 298 K (in CCOC(C)=O): -9.43 kcal/mol
solvation free energy, 298 K (in CCOCC): -9.45 kcal/mol
solvation free energy, 298 K (in CN(C)C=O): -10.1 kcal/mol
solvation free energy, 298 K (in CNC=O): -10 kcal/mol
solvation free energy, 298 K (in CO): -9.81 kcal/mol
solvation free energy, 298 K (in O): -6.96 kcal/mol
